Measured values as given in US12624039B2, “BTK inhibitors” (DIZAL (JIANGSU) PHARMACEUTICAL CO., LTD., priority 2020, dated 2026).
Read-outs that look alike come from different tables or passages of the source.

Legend:
[1] = Protein binding in human plasma by equilibrium dialysis; type: in vitro ADME; conditions: 18 hours at 37° C.; for hPPB (fu %): human plasma, 5 μM, fraction unbound; for fraction unbound at 18 h, 5 μM: human, plasma, pH 7.4, human plasma, read-out: hPPB (fu %)
Procedure: [formula] DF means the dilution factor. Procedure for Protein Binding Measurements in Human Plasma by Using Equilibrium Dialysis
Add 597 μL of blank plasma into each vial of a new plastic plate or separate plastic tube by addition of 3 μL of the working solution of each cassette, vortex at 1,000 rpm for 5 minutes. The final percent volume of organic solvent is 0.5% and the final concentration for test compound is 5 μM. Immediately transfer 50 μL of the spiked plasma suspension to a 96-well plate to act as T=0 control sample. The samples are treated the same as the samples after incubation. Place all remaining spiked plasma in the incubator for the duration of the study.
Place inserts open end up into the wells of the base plate. Add 500 μL of phosphate buffer (pH 7.4) to the buffer chamber, which is indicated by the white ring. Add 300 μL of spiked plasma sample into the sample chamber, which is indicated by the red ring. Cover the unit with gas permeable lid and incubate for 18 hours at 37° C. at 300 rpm with 5% CO2 on an orbital shaker in the CO2 incubator. At the end of incubation, remove lid and pipette 50 μL of post-dialysis samples from both buffer and plasma chambers into separated 96-well plate for analysis, respectively.
At the same time, the remaining spiked plasma sample in the plastic plate or separate plastic tube is incubated for 18 hours at 37° C. with 5% CO2 in the CO2 incubator. At T=18 hours, transfer 50 μL of the original spiked plasma suspension to the 96-well plate for analysis.
Add 50 μL of Human plasma to the buffer samples, and an equal volume of PBS to the collected plasma samples. Vortex the plate at 1,000 rpm for 2 minutes and add 400 μL of acetonitrile containing an appropriate internal standard (IS) to precipitate protein and release compound. Vortex at 1,000 rpm for 10 minutes. Centrifuge for 30 minutes at 4,000 rpm. Transfer 250 μl of the supernatant to new 96-well plates and centrifuge again (4,000 rpm, 30 minutes). Then transfer 100 μL of the supernatant to new 96-well plates for analysis. Add 100 μL of distilled water to each sample and vortex for 5 minutes at 1,000 rpm for analysis by LC-MS/MS. All compounds are tested in singlicate at 5 μM in human plasma.
All calculations are carried out using Microsoft Excel.
Calculate the percentage of unbound, percentage of bound and recovery of test compound as follows: […]

[2] = tested on: TMD-8 cells; experiment: TMD-8 anti-proliferation assay; type: cell-based
Procedure: TMD-8 Anti-Proliferation Assay
TMD-8 cells were prepared in RPMI1640 media containing 10% foetal bovine, and plated in 384 well plates at 1500 cells per well, The cells were incubated overnight at 37° C., 5% CO2. After incubation, compounds with different concentration were added to the assay plates and incubate cells for a further 72 hours at 37° C., 5% CO2. Following 72 hours incubation, 15 μl of CellTiter 96® AQueous One Solution Reagent was added to each well and the plates incubated at room temperature for 30 mins. Cell viability was determined using the CellTiter-Glo (Promega, USA). The CellTiter-Glo assay was performed according to the manufacturer's instructions, and luminescence was determined in a multi-label reader (Envision, PerkinElmer, USA). The data were processed in XLfit software.

[3] = target: T1, BTK(WT) in HEK293-BTK(WT) cells (Homo sapiens, UniProt Q06187); experiment: HEK293-BTK(WT) p-BTK ELISA; type: cell-based; conditions: 1.5 hour
T1 construct: Full-length cDNAs of BTK containing C481S mutation was generated by mutagenesis; expressed in transfected cells
Procedure: (§1) The mutated BTK cDNAs were confirmed by sequencing. […] The transfected cells were selected in 2 μg/mL of puromycin. Stable polyclonal cell lines were confirmed by WB and used for further study. […] All the cells were maintained in a humidified incubator at 37° C. with 5% CO2.
(§2) The test compounds were added to the cells and cells were incubated for 1.5 hour at 37° C., 5% CO2. […] The plate was read on a Multiscan Spectrum reader set to 450 nm wavelengths. The data were processed in Graph Pad Prism software.

[4] = target: T2, BTK-C481S in HEK293-BTK(C481S) cells (Homo sapiens, UniProt Q06187, C481S); experiment: HEK293-BTK(C481S) p-BTK ELISA; type: cell-based; conditions: 1.5 hour
T2 construct: Full-length cDNAs of BTK containing C481S mutation was generated by mutagenesis; expressed in transfected cells
Procedure: as §1, §2

[5] = Short oral absorption (SOA) assay in rats, brain penetration; type: in vivo; conditions: rat; for Kp: brain, AUCbrain/AUCplasma
Procedure: Short Oral Absorption (SOA) Assay in Rats.
(§3) A Short oral absorption (SOA) model is an in-vivo screening model to identify brain penetration of a compound. To evaluate the potential of a compound to cross the blood-brain barrier in rats, total brain-to-plasma ratio (Kp,brain) was measured AUCbrain/AUCplasma. CSF-to-plasma ratio (Kp,CSF) was determined by either AUCCSF/AUCplasma or the average of CSF-to-plasma ratios at available time points after oral administration, respectively. Free fractions of in biological matrix were determined by in vitro plasma and brain binding assay in a separate study. Kp,uu,brain and Kp,uu,CSF were calculated by the following equations: (1) Kp,uu,brain=Kp, brain×fu,brain/fu,plasma; (2) Kp,uu,CSF=Kp,CSF/fu,plasma.

[6] = In vitro plasma and brain binding assay (free fractions); type: in vitro ADME, rat
Procedure: as §3

[7] = Kp,CSF/fu,plasma, read-out: Kp, uu CSF
[8] = Kp,brain×fu,brain/fu,plasma, read-out: Kp, uu brain
[9] = rat brain free fraction, read-out: Rat fu, br (%)
[10] = rat plasma free fraction, read-out: Rat fu, pl (%)

T2 sequence (Q06187 whole entry C481S): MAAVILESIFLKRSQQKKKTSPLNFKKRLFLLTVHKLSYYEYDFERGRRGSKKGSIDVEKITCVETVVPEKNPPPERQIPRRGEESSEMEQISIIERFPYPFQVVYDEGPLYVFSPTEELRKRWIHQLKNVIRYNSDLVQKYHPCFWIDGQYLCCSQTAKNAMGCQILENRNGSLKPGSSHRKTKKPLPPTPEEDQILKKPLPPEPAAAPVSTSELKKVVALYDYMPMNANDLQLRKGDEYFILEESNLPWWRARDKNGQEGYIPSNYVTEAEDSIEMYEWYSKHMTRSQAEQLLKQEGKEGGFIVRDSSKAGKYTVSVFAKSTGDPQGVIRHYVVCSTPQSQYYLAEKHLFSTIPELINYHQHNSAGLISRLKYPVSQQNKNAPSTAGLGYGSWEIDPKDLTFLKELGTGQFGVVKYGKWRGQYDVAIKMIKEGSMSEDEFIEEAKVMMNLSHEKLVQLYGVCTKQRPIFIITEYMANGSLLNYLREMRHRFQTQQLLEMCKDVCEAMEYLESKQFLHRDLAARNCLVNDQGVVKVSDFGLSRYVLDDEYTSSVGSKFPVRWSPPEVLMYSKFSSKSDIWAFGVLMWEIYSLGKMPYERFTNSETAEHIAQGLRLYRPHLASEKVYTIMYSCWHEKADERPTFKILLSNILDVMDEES

Row | Structure (SMILES) | hPPB (fu %) [1] | fraction unbound at 18 h, 5 μM [1] | IC50 [3] | IC50 [4] | Kp [5] | Kp uu [5, 7] | Kp uu [5, 8] | fraction unbound [6, 9] | fraction unbound [6, 10] | IC50 ([2]; 72 hours) | IC50 ([2]; Homo sapiens, TMD8, 72 h)
1 | Nc1ncnn2c(C3CCC(CO)OC3)nc(-c3ccc(Oc4ccccc4)cc3F)c12 (single isomer, unassigned) [Compound 9, (5-(4-amino-5-(2-fluoro-4-phenoxyphenyl)imidazo[1,5-a][1,2,4]triazin-7-yl)tetrahydro-2H-pyran-2-yl)methanol] | 5.8% | – | – | – | – | – | – | – | – | 160 nM | –
2 | Nc1nccn2c(C3CCC(CO)OC3)nc(-c3ccc(Oc4ccccc4)c(F)c3F)c12 (single isomer, unassigned) [Compound 4, (5-(8-amino-1-(2,3-difluoro-4-phenoxyphenyl)imidazo[1,5-a]pyrazin-3-yl)tetrahydro-2H-pyran-2-yl)methanol] | – | 0.088 | 18.8 nM | 84.2 nM | – | – | – | – | – | 16.2 nM | –
3 | Nc1nccn2c(C3CCC(CO)OC3)nc(-c3ccc(Oc4ccccc4)c(F)c3F)c12 (single isomer, unassigned) [Compound 5, (5-(8-amino-1-(2,3-difluoro-4-phenoxyphenyl)imidazo[1,5-a]pyrazin-3-yl)tetrahydro-2H-pyran-2-yl)methanol] | 9.0% | – | – | – | – | – | – | – | – | 102 nM | –
4 | Nc1nccn2c(C3CCC(CO)OC3)nc(-c3ccc(Oc4ccccc4)cc3F)c12 (single isomer, unassigned) [Compound 2, Trans-(5-(8-amino-1-(2-fluoro-4-phenoxyphenyl)imidazo[1,5-a]pyrazin-3-yl)tetrahydro-2H-pyran-2-yl)methanol] | – | 0.106 | 27.3 nM | 70.6 nM | 1.35 | 0.86 | 1.19 | 0.033 | 0.038 | 22.7 nM | –
5 | Nc1nccn2c(C3CCC(CO)OC3)nc(-c3ccc(Oc4ccccc4)cc3)c12 (stereo not drawn) [Compound 1, (5-(8-amino-1-(4-phenoxyphenyl)imidazo[1,5-a]pyrazin-3-yl)tetrahydro-2H-pyran-2-yl)methanol] | – | 0.098 | – | – | – | – | – | – | – | – | 24.2 nM
6 | Nc1nccn2c(C3CCC(CO)OC3)nc(-c3ccc(Oc4ccccc4)cc3F)c12 (single isomer, unassigned) [Compound 3, Trans-(5-(8-amino-1-(2-fluoro-4-phenoxyphenyl)imidazo[1,5-a]pyrazin-3-yl)tetrahydro-2H-pyran-2-yl)methanol] | 11.9% | – | – | – | – | – | – | – | – | 106 nM | –

Further lines, with some results ahead:

Row | hPPB (fu %) [1] | fraction unbound at 18 h, 5 μM [1] | IC50 [3] | IC50 [4] | Kp [5] | Kp uu [5, 7] | Kp uu [5, 8] | fraction unbound [6, 9] | fraction unbound [6, 10] | Structure (SMILES) | IC50 ([2]; 72 hours) | IC50 ([2]; Homo sapiens, TMD8, 72 h)
7 | – | 0.074 | 17.6 nM | 46.8 nM | – | – | – | – | – | Nc1ncnn2c(C3CCC(CO)OC3)nc(-c3ccc(Oc4ccccc4)c(F)c3F)c12 (stereo not drawn) [Compound 12, (5-(4-amino-5-(2,3-difluoro-4-phenoxyphenyl)imidazo[1,5-f][1,2,4]triazin-7-yl)tetrahydro-2H-pyran-2-yl)methanol] | – | –
8 | 8.1% | – | 60 nM | 170 nM | 0.38 | 0.56 | 0.23 | 0.022 | 0.037 | Nc1ncnn2c(C3CCC(CO)OC3)nc(-c3ccc(Oc4ccccc4)cc3F)c12 (single isomer, unassigned) [Compound 10, Trans-(5-(4-amino-5-(2-fluoro-4-phenoxyphenyl)imidazo[5,1-f][1,2,4]triazin-7-yl)tetrahydro-2H-pyran-2-yl)methanol] | 32.2 nM | –
9 | – | 0.093 | – | – | – | – | – | – | – | Nc1ncnn2c(C3CCC(CO)OC3)nc(-c3ccc(Oc4ccccc4)cc3F)c12 (single isomer, unassigned) [Compound 8, (5-(4-amino-5-(2-fluoro-4-phenoxyphenyl)imidazo[5,1-f][1,2,4]triazin-7-yl)tetrahydro-2H-pyran-2-yl)methanol] | 77 nM | –
10 | 7.3% | – | – | – | – | – | – | – | – | Nc1nccn2c(C3CCC(CO)OC3)nc(-c3ccc(Oc4cccc(F)c4F)cc3)c12 (single isomer, unassigned) [Compound 7, (5-(8-amino-1-(4-(2,3-difluorophenoxy)phenyl)imidazo[1,5-a]pyrazin-3-yl)tetrahydro-2H-pyran-2-yl)methanol] | 219 nM | –
11 | 8.9% | – | – | – | – | – | – | – | – | Nc1ncnn2c(C3CCC(CO)OC3)nc(-c3ccc(Oc4ccccc4)cc3F)c12 (single isomer, unassigned) [Compound 11, Trans-(5-(4-amino-5-(2-fluoro-4-phenoxyphenyl)imidazo[5,1-f][1,2,4]triazin-7-yl)tetrahydro-2H-pyran-2-yl)methanol] | 70.9 nM | –
12 | – | 0.075 | 33.4 nM | 75.4 nM | – | – | – | – | – | Nc1nccn2c(C3CCC(CO)OC3)nc(-c3ccc(Oc4cccc(F)c4F)cc3)c12 (single isomer, unassigned) [Compound 6, (5-(8-amino-1-(4-(2,3-difluorophenoxy)phenyl)imidazo[1,5-a]pyrazin-3-yl)tetrahydro-2H-pyran-2-yl)methanol] | 27.4 nM | –
13 | – | 0.049 | 16 nM | 36.3 nM | 0.32 | 0.59 | 0.23 | 0.015 | 0.02 | Nc1ncnn2c(C3CCC(CO)OC3)nc(-c3ccc(Oc4cccc(F)c4F)cc3)c12 (stereo not drawn) [Compound 14, (5-(4-amino-5-(4-(2,3-difluorophenoxy)phenyl)imidazo[5,1-f][1,2,4]triazin-7-yl)tetrahydro-2H-pyran-2-yl)methanol] | – | –
